Measurements as given in publication PMC7979765, “trans-Translation inhibitors bind to a novel site on the ribosome and clear Neisseria gonorrhoeae in vivo” (Nature Communications, 2021).
pIC50: −log10 of the molar value. Converted amounts (≈) assume the structure as drawn. “And” between values parts separate entries of the source, which are not always exact repeats. Identical values can stand only once.

What was measured:
[1] = Liver microsome stability, murine; assay type: in vitro ADME, mouse; conditions: murine liver microsomes; for Average MLMS t½: average of replicates; for MLMS t½: individual replicates
Outline: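 Compounds incubated with liver microsomes plus NADPH over 30 min; parent remaining quantified by reverse-phase LC/MS. Half-life from linear regression over several time points.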

Neisseria gonorrhoeae = experiment: MIC, microbroth dilution, G77L medium; assay type: cell-based; conditions: Neisseria gonorrhoeae ATCC 49226; source data, individual replicates
Escherichia coli = experiment: microbe, parasite or virus in culture; assay type: cell-based; conditions: E. coli KLE701 (ΔtolC::tet); source data, individual replicates
HeLa cells [2] = experiment: Mammalian cell cytotoxicity (CC50); assay type: cell-based, human; conditions: HeLa, replicates
Protocol: The half maximal cytotoxic concentration (CC50) of each compound against HeLa cells (ATCC CCL-2) was measured as previously described. […] The mean values for each biological replicate were averaged, and the CC50 was determined using a 4-parameter nonlinear curve fitting algorithm (GraphPad Prism). The average of the CC50s from two biological replicates was calculated and reported.

HeLa cells [3] = experiment: Mammalian cell cytotoxicity (CC50); assay type: cell-based, human; conditions: one value per replicate
[4] = Aqueous solubility (nephelometric); assay type: physicochemical; conditions: for Solubility: single replicates
trans-translation = experiment: microbe, parasite or virus in culture; assay type: cell-based, Escherichia coli; conditions: for pIC50: Eco Luc reporter, one value per replicate, read-out: IC50; for Luminescence readout (Envision plate reader) / Luminescence, background subtracted (DMSO control): per replicate
Protocol: To verify that MBX-4132 retains activity as an inhibitor of trans-translation, we measured its dose-dependent activity against the non-stop luciferase reporter assay strain E. coli SB75 ΔtolC::kan (pluc-trpAt) essentially as described, with modifications. Briefly, serial 1.5-fold dilutions of MBX-4132 in DMSO were transferred to 96-well assay plates (Costar 3195), followed by the addition of 50 µl of an overnight culture of SB75 ΔtolC::kan (pluc-trpAt) that had been diluted to a final OD600 of 0.4 with LB media supplemented with 100 µg ampicillin/ml and 1 mM IPTG. […] The assay plates were incubated at room temperature for 2 h, and 50 µl of BrightGlo (Promega) bioluminescence reagent was added to each well. After 10 min incubation, bioluminescence intensity was measured using an Envision multi-label plate reader (Perkin Elmer). Each assay comprised three technical replicates, and the experiment was repeated three times. The fold induction for each MBX-4132 treated sample as compared to the DMSO-only sample was calculated for each technical replicate, and the average and standard deviation of the three technical was calculated. The IC50 was determined using a 4-parameter nonlinear curve fitting algorithm (GraphPad Prism).

Compound | Average MLMS t½ [1] | MLMS t½ [1] | MIC (Neisseria gonorrhoeae) | MIC (Escherichia coli) | NORMALIZED DATA (Fraction DMSO Control) (HeLa cells [2]; [CMPD] 0.78125 µM) | NORMALIZED DATA (Fraction DMSO Control) (HeLa cells [2]; [CMPD] 1.5625 µM) | NORMALIZED DATA (Fraction DMSO Control) (HeLa cells [2]; [CMPD] 3.125 µM) | NORMALIZED DATA (Fraction DMSO Control) (HeLa cells [2]; [CMPD] 6.25 µM) | NORMALIZED DATA (Fraction DMSO Control) (HeLa cells [2]; [CMPD] 12.5 µM) | NORMALIZED DATA (Fraction DMSO Control) (HeLa cells [2]; [CMPD] 25 µM) | NORMALIZED DATA (Fraction DMSO Control) (HeLa cells [2]; [CMPD] 50 µM) | NORMALIZED DATA (Fraction DMSO Control) (HeLa cells [2]; [CMPD] 100 µM) | CC50 (HeLa cells [3]) | Average solubility [4] | Solubility [4] | pIC50 (trans-translation) | also measured
Fc1ccc(-c2nnc(NCc3ccc(Cl)cc3)o2)cc1 [MBX-3776] | 5.3 min | 4.3 min and 6.3 min | >=30.372 µg/ml | >=30.372 µg/ml | 0.9425 Fraction DMSO Control and 0.9291 Fraction DMSO Control and 1.002 Fraction DMSO Control and 0.9674 Fraction DMSO Control and 0.9349 Fraction DMSO Control and 0.9583 Fraction DMSO Control | 0.9887 Fraction DMSO Control and 1.033 Fraction DMSO Control and 1.0461 Fraction DMSO Control and 0.981 Fraction DMSO Control and 0.9949 Fraction DMSO Control and 1.019 Fraction DMSO Control | 0.9887 Fraction DMSO Control and 0.9933 Fraction DMSO Control and 1.016 Fraction DMSO Control and 0.9805 Fraction DMSO Control and 0.9905 Fraction DMSO Control and 1.024 Fraction DMSO Control | 0.964 Fraction DMSO Control and 0.9895 Fraction DMSO Control and 1.009 Fraction DMSO Control and 1.011 Fraction DMSO Control and 0.9848 Fraction DMSO Control and 0.9995 Fraction DMSO Control | 0.9916 Fraction DMSO Control and 1.003 Fraction DMSO Control and 0.985 Fraction DMSO Control and 0.9785 Fraction DMSO Control and 0.9711 Fraction DMSO Control and 0.9946 Fraction DMSO Control | 0.8342 Fraction DMSO Control and 0.8793 Fraction DMSO Control and 0.8796 Fraction DMSO Control and 0.8381 Fraction DMSO Control and 0.8221 Fraction DMSO Control and 0.8915 Fraction DMSO Control | 0.8682 Fraction DMSO Control and 0.9316 Fraction DMSO Control and 0.8851 Fraction DMSO Control and 0.8718 Fraction DMSO Control and 0.8862 Fraction DMSO Control and 0.9022 Fraction DMSO Control | 0.8662 Fraction DMSO Control and 0.9027 Fraction DMSO Control and 0.8885 Fraction DMSO Control and 0.8759 Fraction DMSO Control and 0.8519 Fraction DMSO Control and 0.9047 Fraction DMSO Control | ≥ 100 µM | 25 µM | 25 µM (≈ 7.59 µg/mL) | ≤ 4.60 | 
Cc1ccc(S(=O)(=O)Nc2nnc(-c3ccc(F)cc3)o2)cc1 [MBX-4063] | <5 min | <5 min | >=33.3 µg/ml | >=33.334 µg/ml | 1.183 Fraction DMSO Control and 0.9487 Fraction DMSO Control and 1.005 Fraction DMSO Control | 1.094 Fraction DMSO Control and 0.958 Fraction DMSO Control and 0.97 Fraction DMSO Control | 1.091 Fraction DMSO Control and 0.9572 Fraction DMSO Control and 1.016 Fraction DMSO Control | 1.076 Fraction DMSO Control and 0.9091 Fraction DMSO Control and 0.9832 Fraction DMSO Control | 1.0577 Fraction DMSO Control and 0.9473 Fraction DMSO Control and 0.9636 Fraction DMSO Control | 1.026 Fraction DMSO Control and 0.9338 Fraction DMSO Control and 0.9374 Fraction DMSO Control | 1.123 Fraction DMSO Control and 0.9526 Fraction DMSO Control and 0.9567 Fraction DMSO Control | 1.06 Fraction DMSO Control and 0.9108 Fraction DMSO Control and 0.964 Fraction DMSO Control | ≥ 100 µM | 100 µM | 100 µM (≈ 33.3 µg/mL) | ≤ 4.60 | 
O=C(Nc1nnc(C2CCCCC2)o1)c1ccc(Cl)cc1 [MBX-4370] | <5 min | <5 min | 0.2388 µg/mL and 0.1196 µg/mL | 0.4778 µg/mL and 0.9555 µg/mL | 1.07 Fraction DMSO Control and 1.036 Fraction DMSO Control and 1.021 Fraction DMSO Control and 1.042 Fraction DMSO Control and 1.024 Fraction DMSO Control and 0.9956 Fraction DMSO Control | 1.061 Fraction DMSO Control and 1.02 Fraction DMSO Control and 0.9814 Fraction DMSO Control and 1.082 Fraction DMSO Control and 1.03 Fraction DMSO Control and 0.9471 Fraction DMSO Control | 1.05 Fraction DMSO Control and 1.039 Fraction DMSO Control and 0.9574 Fraction DMSO Control and 1.045 Fraction DMSO Control and 1.018 Fraction DMSO Control and 0.9296 Fraction DMSO Control | 1.047 Fraction DMSO Control and 1.02 Fraction DMSO Control and 0.985 Fraction DMSO Control and 1.025 Fraction DMSO Control and 0.9985 Fraction DMSO Control and 0.9262 Fraction DMSO Control | 0.7981 Fraction DMSO Control and 0.8325 Fraction DMSO Control and 0.8129 Fraction DMSO Control and 0.8056 Fraction DMSO Control and 0.7525 Fraction DMSO Control and 0.7321 Fraction DMSO Control | 0.4723 Fraction DMSO Control and 0.5367 Fraction DMSO Control and 0.6164 Fraction DMSO Control and 0.4594 Fraction DMSO Control and 0.5425 Fraction DMSO Control and 0.5809 Fraction DMSO Control | 0.2465 Fraction DMSO Control and 0.3246 Fraction DMSO Control and 0.4191 Fraction DMSO Control and 0.3946 Fraction DMSO Control and 0.4088 Fraction DMSO Control and 0.4903 Fraction DMSO Control | 0.4495 Fraction DMSO Control and 0.5491 Fraction DMSO Control and 0.5315 Fraction DMSO Control and 0.5237 Fraction DMSO Control and 0.6389 Fraction DMSO Control and 0.5972 Fraction DMSO Control | 18.1 µM and 19.4 µM and 21.8 µM and 14.3 µM and 14.5 µM and 13.7 µM | 50 µM | 50 µM (≈ 15.3 µg/mL) | 6.92 and 6.91 and 6.84 | Luminescence readout (Envision plate reader) (trans-translation; [Compound] 0.046875 µM): 496280 and 436160 and 442680; Luminescence readout (Envision plate reader) (trans-translation; [Compound] 0.0625 µM): 452080 and 467160 and 463360; Luminescence, background subtracted (DMSO control) (trans-translation; [Compound] 0.0625 µM): 23120 and 8920 and 25040; Luminescence readout (Envision plate reader) (trans-translation; [Compound] 0.09375 µM): 467480 and 440040 and 454600; Luminescence readout (Envision plate reader) (trans-translation; [Compound] 0.125 µM): 460600 and 443360 and 458920; Luminescence readout (Envision plate reader) (trans-translation; [Compound] 0.1875 µM): 449320 and 468280 and 463760; Luminescence, background subtracted (DMSO control) (trans-translation; [Compound] 0.1875 µM): 20360 and 10040 and 25440; Luminescence readout (Envision plate reader) (trans-translation; [Compound] 0.25 µM): 454000 and 469520 and 468760; Luminescence, background subtracted (DMSO control) (trans-translation; [Compound] 0.25 µM): 25040 and 11280 and 30440; Luminescence readout (Envision plate reader) (trans-translation; [Compound] 0.375 µM): 472720 and 482560 and 460640; Luminescence, background subtracted (DMSO control) (trans-translation; [Compound] 0.375 µM): 43760 and 24320 and 22320; Luminescence readout (Envision plate reader) (trans-translation; [Compound] 0.5 µM): 517120 and 524880 and 509520; Luminescence, background subtracted (DMSO control) (trans-translation; [Compound] 0.5 µM): 88160 and 66640 and 71200; Luminescence readout (Envision plate reader) (trans-translation; [Compound] 0.75 µM): 547920 and 542080 and 527800; Luminescence, background subtracted (DMSO control) (trans-translation; [Compound] 0.75 µM): 118960 and 83840 and 89480; Luminescence readout (Envision plate reader) (trans-translation; [Compound] 1 µM): 530760 and 535720 and 544960; Luminescence, background subtracted (DMSO control) (trans-translation; [Compound] 1 µM): 101800 and 77480 and 106640; Luminescence readout (Envision plate reader) (trans-translation; [Compound] 1.5 µM): 476080 and 424480 and 540520
